Results taken from patent US5610174A, “Use of α1A -selective adrenoceptor agonists for the treatment of urinary incontinence” (priority 1995, dated 1997).
Like-named read-outs stand apart in the source and are kept apart here.

How the values were obtained:
human 5-HT1E receptor = biological target: T1, human 5-HT1E receptor (Homo sapiens, UniProt P28566); experiment: Radioligand binding at human 5-HT1E; conditions: [3H]serotonin; for Ki: read-out: pKi 5-HT1E (converted)
T1 construct: expressed in transfected cells; host or cells: LM(tk-) clonal cell line, designated 5-HT1E-7, ATCC CRL 10913 (cell lysates)
Procedure: Human Serotonin Receptors
5-HT1Dα, 5-HT1Dβ, 5-HT1E, 5-HT1F, and 5-HT7 Receptors: The cell lysates of LM(tk-) clonal cell line stably transfected with the genes encoding each of these 5-HT receptor-subtypes were prepared as described above. The cell line for the 5-HT1Dαreceptor, designated as Ltk-8-30-84, was deposited on Apr. 17, 1990, and accorded ATCC Accession No. CRL 10421. The cell for the 5-HT1Dβ receptor, designated as Ltk-11, was deposited on Apr. 17, 1990, and accorded ATCC Accession No. CRL 10422. The cell line for the 5-HT1E receptor, designated 5-HT1E -7, was deposited on Nov. 6, 1991, and accorded ATCC Accession No. CRL 10913. The cell line for the 5-HT1F receptor, designated L-5-HT1F, was deposited on Dec. 27, 1991, and accorded ATCC Accession No. CRL 10957. The cell line for the 5-HT7 receptor, designated as L-5-HT-4B, was deposited on Oct. 20, 1992, and accorded ATCC Accession No. CRL 11166. These preparations were suspended in 50 mM Tris-HCl buffer (pH 7.4 at 37° C.) containing 10 mM MgCl2, 0.2 mM EDTA, 10 μM pargyline, and 0.1% ascorbate. […] Nonspecific binding was determined in the presence of 10 μM serotonin. The bound radioligand was separated by filtration through GF/B filters using a cell harvester.

[1] = biological target: T2, dog BN, female (α1-adrenoceptor) (Canis lupus, UniProt A0A8I3NK63); experiment: Contractile study in isolated female dog bladder neck; conditions: for pEC50 Bladder Neck: agonist contraction; for pEC50 Bladder Neck / sensitivity of the contraction to prazosin, bladder neck: female dog bladder neck
T2 sequence (A0A8I3NK63 1-466): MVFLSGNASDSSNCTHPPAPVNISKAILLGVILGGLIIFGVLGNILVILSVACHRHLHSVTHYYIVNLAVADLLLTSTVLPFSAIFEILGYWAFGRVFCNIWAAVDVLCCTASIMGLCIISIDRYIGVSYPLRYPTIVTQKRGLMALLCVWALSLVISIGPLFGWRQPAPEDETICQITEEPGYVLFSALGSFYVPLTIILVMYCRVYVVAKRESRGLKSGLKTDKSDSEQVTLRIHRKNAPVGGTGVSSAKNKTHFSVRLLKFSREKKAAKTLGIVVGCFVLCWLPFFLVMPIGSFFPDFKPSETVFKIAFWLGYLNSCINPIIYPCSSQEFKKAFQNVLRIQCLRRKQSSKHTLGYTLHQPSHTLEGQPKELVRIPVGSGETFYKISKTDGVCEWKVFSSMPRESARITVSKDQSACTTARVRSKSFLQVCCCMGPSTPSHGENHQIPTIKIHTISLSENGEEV
Source text: In addition, similar studies were done using bladder neck tissue from female dogs. In order to identify the specific receptor subtype in each tissue, the pharmacological profile was compared to the profiles for these same drugs at the cloned human α1A, α1B, or α1C subtypes.
Tissue samples from the proximal urethra of male humans and male and female rabbits, as well as tissue samples from both the proximal urethra and bladder neck of male and female dogs were cut into transverse strips (3×10 mm) and suspended under 0.5 g tension in Krebs' physiological buffer at 37° C. To determine agonist potency (pEC50 )and antagonist affinity constants (pKB), concentration-effect curves to the non-selective agonist phenylepherine were constructed in the absence and in the presence of increasing concentrations of the antagonist. Up to four sequential curves were constructed in each tissue. Antagonists were allowed to equilibrate for 1h before each concentration-effect curve, and the drugs were completely washed out in between successive curves. In each experiment, one tissue served as a "time control", in which no antagonist was added so that changes in tissue sensitivity could be assessed as a function of time. […] In instances in which a single concentration of antagonist was used, pKB values were determined by the equation: […], where CR is defined as the ratio of the agonist EC50 in the presence of the antagonist to that in the absence of the antagonist.

[2] = biological target: T3, human dopamine D5 receptor (Homo sapiens, UniProt P21918); experiment: Radioligand binding at human dopamine D5
T3 construct: expressed in transfected cells
Procedure: (§1) Other Dopamine receptors were prepared by known methods. (D1 : Dearry et al., Nature, 347, 72, (1990), deposited with the European Molecular Biological Laboratory (EMBL) Genbank as X55760; D3 : Sokoloff, P. et al., Nature, 347, 146 (1990), deposited with the European Molecular Biological Laboratory (EMBL) Genbank as X53944; D5 : Sunahara, R. K., et al., Nature, 350, 614 (1991), deposited with EMBL Genbank as X58454-HU HD 5DR).

[3] = biological target: T4, human dopamine D1 receptor (Homo sapiens, UniProt P21728); experiment: Radioligand binding at human dopamine D1; conditions: for Ki: read-out: pKi D1 (converted)
T4 construct: expressed in transfected cells
Procedure: as §1

human α2A adrenoceptor = biological target: T5, human α2A adrenoceptor (Homo sapiens, UniProt P08913); experiment: Inhibition of forskolin stimulated adenylyl cyclase, α2A; assay type: cell-based; conditions: for Emax: read-out: intrinsic activity (i.a.) α2A
T5 construct: expressed in transfected cells; host or cells: LM(tk-)
T5 sequence (P08913 1-465): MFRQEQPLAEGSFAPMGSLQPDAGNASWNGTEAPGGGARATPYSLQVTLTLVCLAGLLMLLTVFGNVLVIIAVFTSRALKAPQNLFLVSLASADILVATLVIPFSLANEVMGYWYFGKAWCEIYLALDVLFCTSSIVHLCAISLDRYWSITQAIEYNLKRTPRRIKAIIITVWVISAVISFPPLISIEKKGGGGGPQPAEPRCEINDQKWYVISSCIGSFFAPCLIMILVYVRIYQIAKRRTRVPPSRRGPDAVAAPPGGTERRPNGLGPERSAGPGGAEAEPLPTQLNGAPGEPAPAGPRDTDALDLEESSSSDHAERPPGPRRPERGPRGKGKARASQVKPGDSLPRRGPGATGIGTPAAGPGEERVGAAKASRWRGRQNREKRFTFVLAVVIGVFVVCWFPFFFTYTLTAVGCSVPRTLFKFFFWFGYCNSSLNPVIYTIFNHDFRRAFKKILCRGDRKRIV
Procedure: α2 -Adrenoceptor-Mediated Inhibition of Forskolin Stimulated Adenylyl Cyclase
The agonist activity of test compounds was assayed by measuring their ability to inhibit adenylyl cyclase in cells stably transfected with each of the three cloned human α2 -adrenoceptors. LM(tk-) cells expressing the α2A - or the α2C -, as well as Y1 cells expressing the α2B -adrenoceptor were used. […] The formation of cyclic AMP was measured in cultures incubated with DMEM containing 1 mM theophylline. […] The data from concentration-response curves was fitted to a four-parameter logistic equation, by non-linear regression analysis, to determine the pEC50 and intrinsic activity.

T1 sequence (P28566 whole entry): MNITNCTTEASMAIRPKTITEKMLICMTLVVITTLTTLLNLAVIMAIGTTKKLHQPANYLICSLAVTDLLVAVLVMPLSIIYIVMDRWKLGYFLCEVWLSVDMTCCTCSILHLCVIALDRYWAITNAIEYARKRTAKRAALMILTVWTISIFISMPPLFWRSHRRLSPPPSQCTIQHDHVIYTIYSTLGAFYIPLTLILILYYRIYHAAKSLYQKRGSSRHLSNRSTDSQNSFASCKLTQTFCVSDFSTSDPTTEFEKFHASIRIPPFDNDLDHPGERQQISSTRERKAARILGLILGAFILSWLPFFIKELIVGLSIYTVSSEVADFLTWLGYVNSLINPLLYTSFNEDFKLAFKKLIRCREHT
T3 sequence (P21918 whole entry): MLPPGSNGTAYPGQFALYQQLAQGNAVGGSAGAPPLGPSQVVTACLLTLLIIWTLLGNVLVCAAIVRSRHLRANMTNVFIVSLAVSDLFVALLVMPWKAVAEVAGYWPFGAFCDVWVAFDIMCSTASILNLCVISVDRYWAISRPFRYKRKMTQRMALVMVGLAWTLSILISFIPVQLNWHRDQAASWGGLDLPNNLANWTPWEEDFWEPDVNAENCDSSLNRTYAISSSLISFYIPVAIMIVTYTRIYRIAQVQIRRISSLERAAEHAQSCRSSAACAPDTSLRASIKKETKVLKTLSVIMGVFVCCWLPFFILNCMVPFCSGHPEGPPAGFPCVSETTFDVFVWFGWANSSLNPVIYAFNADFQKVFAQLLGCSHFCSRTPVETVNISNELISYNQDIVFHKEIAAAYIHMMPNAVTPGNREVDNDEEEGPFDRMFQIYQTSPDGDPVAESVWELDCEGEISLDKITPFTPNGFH
T4 sequence (P21728 whole entry): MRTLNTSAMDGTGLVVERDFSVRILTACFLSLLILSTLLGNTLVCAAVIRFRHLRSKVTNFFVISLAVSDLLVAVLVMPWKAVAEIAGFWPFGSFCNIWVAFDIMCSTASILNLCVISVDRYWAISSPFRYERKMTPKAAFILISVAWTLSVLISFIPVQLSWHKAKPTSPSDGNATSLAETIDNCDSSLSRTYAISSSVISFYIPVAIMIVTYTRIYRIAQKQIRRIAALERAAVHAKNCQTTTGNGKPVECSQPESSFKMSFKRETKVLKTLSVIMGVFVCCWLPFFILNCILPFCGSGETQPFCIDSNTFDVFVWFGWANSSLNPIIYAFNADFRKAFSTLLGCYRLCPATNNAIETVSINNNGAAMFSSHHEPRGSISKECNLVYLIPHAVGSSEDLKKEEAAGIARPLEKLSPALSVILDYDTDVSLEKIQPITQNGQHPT

## CS(=O)(=O)Nc1c(O)ccc2c1CCCC2C1=NCCN1 (racemic) [Compound A-61603, (±)-N-[5-(4,5-Dihydro-1H-imidazol-2-yl)-2-hydroxy-5,6,7,8-tetra-hydronaphthalen-1-yl]methanesulfonamide]
Human 5-HT1E receptor
  Ki: 5.01 µM
[1]
  pEC50 Bladder Neck: 6.8
  sensitivity of the contraction to prazosin, bladder neck: highly sensitive to prazosin
[2]
  Ki: 15.8 µM
[3]
  Ki: 20 µM

## COc1ccc(OC)c(C(O)CN)c1 (racemic) [ST-1059, (±)-2-Amino-1-(2, 5 dimethoxyphenyl) ethanol]
Human α2A adrenoceptor
  EC50: 2510 nM
  Emax: 20%

## COc1ccc(SC)c2c1C[C@@H]1[C@@H](C2)OCCN1C (relative stereo) [SDZ NVI-085, (±)-trans-4-Methyl-6-methoxy-9-thiomethoxy-3,4,4a, 5,10,10a-hexahydro-2H-naphtho[2,3-b][1,4]oxazine]
Human 5-HT1E receptor
  Ki: 2 µM
Human α2A adrenoceptor; agonist, inhibition of forskolin stimulated adenylyl cyclase, read-out: pEC50 α2A (converted)
  EC50: > 100000 nM
Human α2A adrenoceptor
  Emax: 0%
[2]; read-out: pKi D5 (converted)
  Ki: 20 µM
[3]
  Ki: 7.94 µM

## CN[C@@H](C)[C@H](O)c1ccccc1 [(-)-ephedrine]
Human α2A adrenoceptor
  EC50: 251 nM
  Emax: 30%

## C[C@H](N)[C@H](O)c1ccccc1 [(-)-norephedrine]
Human α2A adrenoceptor
  EC50: 7.94 nM
  Emax: 50%

## COc1ccccc1N1CCN(CCCNc2c(C)c(=O)n(C)c(=O)n2C)CC1 [Compound 5-MU]
[1]; versus phenylephrine-induced contraction
  pKB Dog BN Female: 8.8

## CNCCc1ccc(O)c(NS(C)(=O)=O)c1 [SK&F 102652]
Human 5-HT1E receptor
  pKi 5-HT1E: 5.3
Human α2A adrenoceptor; agonist, inhibition of forskolin stimulated adenylyl cyclase
  pEC50 α2A: < 4.0
Human α2A adrenoceptor
  Emax: 0%
[1]
  pEC50 Bladder Neck: 5.7
  sensitivity of the contraction to prazosin, bladder neck: highly sensitive to prazosin
[2]
  pKi D5: 4.8
[3]
  pKi D1: 5.0
